In brackets after ≈: the same amount, converted by molar mass.
Key:
Format in all cases: cell-based
[1] = test system: E. coli K12 (ATCC 25404); experiment: MIC and MBC, microtiter plate technique; conditions: Escherichia coli; for MBC: ATCC25404; for MIC: ATCC25404, 24 h
[2] = test system: E. coli R4 (ATCC 39543); experiment: MIC and MBC, microtiter plate technique; conditions: Escherichia coli; for MBC: ATCC39543; for MIC: ATCC39543, 24 h
[3] = test system: E. coli R2 (ATCC 39544); experiment: MIC and MBC, microtiter plate technique; conditions: Escherichia coli; for MBC: ATCC39544; for MIC: ATCC39544, 24 h
[4] = test system: E. cloacae (ATCC 49141); experiment: MIC and MBC, microtiter plate technique; conditions: ATCC49141, Enterobacter cloacae; for MIC: 24 h, resazurin; for MBC: TTC
[5] = test system: S. aureus (ATCC 23235); experiment: microbe, parasite or virus in culture; conditions: Staphylococcus aureus; for MBC: ATCC23235; for MIC: ATCC23235, 24 h
[6] = test system: A. baumannii (ATCC 17978); experiment: MIC and MBC, microtiter plate technique; conditions: ATCC17978, Acinetobacter baumannii; for MIC: 24 h, resazurin; for MBC: TTC
[7] = test system: E. coli R3 (ATCC 11775); experiment: MIC and MBC, microtiter plate technique; conditions: Escherichia coli; for MIC: ATCC11775, 24 h, resazurin; for MBC: ATCC11775, TTC
[8] = test system: P. aeruginosa (ATCC 15442); experiment: MIC and MBC, microtiter plate technique; conditions: ATCC15442, Pseudomonas aeruginosa; for MIC: 24 h, resazurin; for MBC: TTC

SMILES	MBC [1] [µM]	MIC [1] [µM]	MBC [2] [µM]	MIC [2] [µM]	MBC [3] [µM]	MIC [3] [µM]	MIC [4] [µM]	MBC [4] [µM]	MBC [5] [µM]	MIC [5] [µM]	MIC [6] [µM]	MBC [6] [µM]	MIC [7] [µM]	MBC [7] [µM]	MIC [8] [µM]	MBC [8] [µM]
CC(=O)N(C1CCCCC1)C(C(=O)NCc1ccccc1)c1ccc(O)c(O)c1 (stereo not drawn) [Compound 5m, N-benzyl-2-(N-cyclohexylacetamido)-2-(3,4-dihydroxyphenyl)acetamide]	0.85 (≈ 0.337 µg/mL)	0.35 (≈ 0.139 µg/mL)	1.53 (≈ 0.607 µg/mL)	0.59 (≈ 0.234 µg/mL)	1.31 (≈ 0.519 µg/mL)	0.94 (≈ 0.373 µg/mL)	0.81 (≈ 0.321 µg/mL)	0.89 (≈ 0.353 µg/mL)	0.78 (≈ 0.309 µg/mL)	0.75 (≈ 0.297 µg/mL)	0.79 (≈ 0.313 µg/mL)	0.88 (≈ 0.349 µg/mL)	1.24 (≈ 0.492 µg/mL)	1.38 (≈ 0.547 µg/mL)	0.8 (≈ 0.317 µg/mL)	0.91 (≈ 0.361 µg/mL)
COc1ccc(CNC(=O)C(c2ccc(O)c(O)c2)N(Cc2ccc(OC)cc2)C(C)=O)cc1 (stereo not drawn) [Compound 5k, 2-(3,4-dihydroxyphenyl)-N-(4-methoxybenzyl)-2-(N-(4-methoxybenzyl)acetamido)-acetamide]	0.79 (≈ 0.367 µg/mL)	0.58 (≈ 0.269 µg/mL)	2.82 (≈ 1.31 µg/mL)	2.55 (≈ 1.18 µg/mL)	1.27 (≈ 0.59 µg/mL)	1.27 (≈ 0.59 µg/mL)	1.14 (≈ 0.53 µg/mL)	1.26 (≈ 0.585 µg/mL)	1.18 (≈ 0.548 µg/mL)	1.18 (≈ 0.548 µg/mL)	0.93 (≈ 0.432 µg/mL)	1 (≈ 0.465 µg/mL)	2.13 (≈ 0.989 µg/mL)	2.58 (≈ 1.2 µg/mL)	1.15 (≈ 0.534 µg/mL)	1.21 (≈ 0.562 µg/mL)
COc1ccc(CNC(=O)C(c2ccc(O)c(O)c2)N(C(=O)Cc2ccccc2)C2CCCCC2)cc1 (stereo not drawn) [Compound 5e]	0.87 (≈ 0.437 µg/mL)	0.3 (≈ 0.151 µg/mL)	1.29 (≈ 0.648 µg/mL)	1.37 (≈ 0.689 µg/mL)	0.89 (≈ 0.447 µg/mL)	0.71 (≈ 0.357 µg/mL)	0.64 (≈ 0.322 µg/mL)	0.7 (≈ 0.352 µg/mL)	0.69 (≈ 0.347 µg/mL)	0.67 (≈ 0.337 µg/mL)	0.72 (≈ 0.362 µg/mL)	0.75 (≈ 0.377 µg/mL)	0.89 (≈ 0.447 µg/mL)	1.15 (≈ 0.578 µg/mL)	0.67 (≈ 0.337 µg/mL)	0.69 (≈ 0.347 µg/mL)
COc1ccc(CN(C(C)=O)C(C(=O)NCc2ccc(F)cc2)c2ccc(O)c(O)c2)cc1 (stereo not drawn) [Compound 5l, 2-(3,4-dihydroxyphenyl)-N-(4-fluorobenzyl)-2-(N-(4-methoxybenzyl)acetamido)-acetamide]	0.77 (≈ 0.348 µg/mL)	0.64 (≈ 0.29 µg/mL)	2.76 (≈ 1.25 µg/mL)	2.61 (≈ 1.18 µg/mL)	1.21 (≈ 0.548 µg/mL)	1.17 (≈ 0.529 µg/mL)	1.23 (≈ 0.557 µg/mL)	1.27 (≈ 0.575 µg/mL)	1.28 (≈ 0.579 µg/mL)	1.27 (≈ 0.575 µg/mL)	1 (≈ 0.452 µg/mL)	1.03 (≈ 0.466 µg/mL)	1.64 (≈ 0.742 µg/mL)	2.62 (≈ 1.19 µg/mL)	1.23 (≈ 0.557 µg/mL)	1.26 (≈ 0.57 µg/mL)
COc1ccc(CNC(=O)C(c2ccc(O)c(O)c2)N(C(C)=O)C2CCCCC2)cc1 (stereo not drawn) [Compound 5n, 2-(N-cyclohexylacetamido)-2-(3,4-dihydroxyphenyl)-N-(4-methoxybenzyl)acetamide]	0.77 (≈ 0.328 µg/mL)	0.39 (≈ 0.166 µg/mL)	1.44 (≈ 0.614 µg/mL)	1.48 (≈ 0.631 µg/mL)	1.3 (≈ 0.554 µg/mL)	0.76 (≈ 0.324 µg/mL)	0.8 (≈ 0.341 µg/mL)	0.8 (≈ 0.341 µg/mL)	0.83 (≈ 0.354 µg/mL)	0.72 (≈ 0.307 µg/mL)	0.75 (≈ 0.32 µg/mL)	0.79 (≈ 0.337 µg/mL)	1.1 (≈ 0.469 µg/mL)	1.3 (≈ 0.554 µg/mL)	0.78 (≈ 0.333 µg/mL)	0.82 (≈ 0.35 µg/mL)
COc1ccc(CN(C(C)=O)C(C(=O)NCc2ccccc2)c2ccc(O)c(O)c2)cc1 (stereo not drawn) [Compound 5j, N-benzyl-2-(3,4-dihydroxyphenyl)-2-(N-(4-methoxybenzyl)acetamido)acetamide]	0.82 (≈ 0.356 µg/mL)	0.26 (≈ 0.113 µg/mL)	1.47 (≈ 0.639 µg/mL)	1.22 (≈ 0.53 µg/mL)	1.19 (≈ 0.517 µg/mL)	0.74 (≈ 0.322 µg/mL)	0.76 (≈ 0.33 µg/mL)	0.81 (≈ 0.352 µg/mL)	0.74 (≈ 0.322 µg/mL)	0.78 (≈ 0.339 µg/mL)	0.8 (≈ 0.348 µg/mL)	0.85 (≈ 0.369 µg/mL)	1.08 (≈ 0.469 µg/mL)	1.28 (≈ 0.556 µg/mL)	0.77 (≈ 0.335 µg/mL)	0.82 (≈ 0.356 µg/mL)

Source: paper PMC11855086, “Synthesis, Antimicrobial Activity, and Tyrosinase Inhibition by Multifunctional 3,4-Dihydroxy-Phenyl Peptidomimetics” (International Journal of Molecular Sciences, 2025)
